One may read the IC50 as the concentration that gives 50% inhibition.

Read-outs that look alike come from different tables or passages of the source.

This passage reports IC50 results from patent publication US10301278B2, “1-(triazin-3-yl/pyridazin-3-yl)-piper(-azine)idine derivatives and compositions therefor for inhibiting the activity of SHP2” (NOVARTIS AG, priority 2014, dated 2019).

The target in this assay is SHP2 (Homo sapiens (Human), UniProt Q06124). The assay can be described thus: SHP2 allosteric inhibition assay (DiFMUP prompt fluorescence). The class given is biochemical. How it is done:
SHP2 is allosterically activated through binding of bis-tyrosyl-phorphorylated peptides to its Src Homology 2 (SH2) domains. The latter activation step leads to the release of the auto-inhibitory interface of SHP2, which in turn renders the SHP2 protein tyrosine phosphatase (PTP) active and available for substrate recognition and reaction catalysis. The catalytic activity of SHP2 was monitored using the surrogate substrate DiFMUP in a prompt fluorescence assay format.
After 30-60 minutes incubation at 25° C., the surrogate substrate DiFMUP (Invitrogen, cat#D6567) was added to the reaction and incubated at 25° C. for 30 minutes. […] The fluorescence signal was monitored using a microplate reader (Envision, Perki-Elmer) using excitation and emission wavelengths of 340 nm and 450 nm, respectively. The inhibitor dose response curves were analyzed using normalized IC50 regression curve fitting with control based normalization.

Where [1] appears, read: 0.5 nM SHP2 activated with 0.5 μM peptide IRS1_pY1172(dPEG8)pY1222, substrate DiFMUP, 25° C., read-out: IC50.

Chain of SHP2 (Q06124 whole entry): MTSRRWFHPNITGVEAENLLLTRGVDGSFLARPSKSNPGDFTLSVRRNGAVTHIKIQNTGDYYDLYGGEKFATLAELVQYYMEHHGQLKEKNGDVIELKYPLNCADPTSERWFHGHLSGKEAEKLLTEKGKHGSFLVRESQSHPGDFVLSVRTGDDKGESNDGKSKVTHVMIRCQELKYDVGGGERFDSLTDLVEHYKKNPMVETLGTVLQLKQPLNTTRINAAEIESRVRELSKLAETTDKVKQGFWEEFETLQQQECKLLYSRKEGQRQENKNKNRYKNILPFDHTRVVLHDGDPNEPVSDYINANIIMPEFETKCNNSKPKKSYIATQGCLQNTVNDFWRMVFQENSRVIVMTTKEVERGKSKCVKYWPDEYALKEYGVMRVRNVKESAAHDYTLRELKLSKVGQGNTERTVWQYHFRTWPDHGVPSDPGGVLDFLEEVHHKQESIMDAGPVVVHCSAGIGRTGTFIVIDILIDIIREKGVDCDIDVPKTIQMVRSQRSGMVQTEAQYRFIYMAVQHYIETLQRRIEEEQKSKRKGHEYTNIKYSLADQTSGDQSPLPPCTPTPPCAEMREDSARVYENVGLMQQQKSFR

As to `CC1(CN)CCN(c2cnc(Sc3cc(N)nc(Cl)c3Cl)c(N)n2)CC1` [Example 55], the IC50 under setting [1] came out at 17.7 nM.

Take `CC1(CN)CCN(c2cnc(Sc3ccnc(Cl)c3Cl)c(N)n2)CC1` [Example 49]: the IC50 under setting [1] was 100 nM.

In the case of `CC1(N)CCN(c2cnc(Sc3ccc(Br)cc3Cl)c(N)n2)CC1` [Example 22], the IC50 under setting [1] turned out to be 44 nM.

In the case of `CC1(CN)CCN(c2cnc(Sc3ccnc(N)c3Cl)c(N)n2)CC1` [Example 42, 3-((2-amino-3-chloropyridin-4-yl)thio)-6-(4-(aminomethyl)-4-methylpiperidin-1-yl)pyrazin-2-amine], the half-inhibitory concentration (IC50) under setting [1] amounted to 23 nM.

For the compound `CC1(N)CCN(c2cnc(Sc3cccnc3C(F)(F)F)c(N)n2)CC1` [Example 30], the half-inhibitory concentration (IC50) under setting [1] stood at 66 nM.

`NCC1(O)CCN(c2cnc(Sc3cccc(N)c3Cl)c(N)n2)CC1` [Example 47]: the IC50 under setting [1] stood at 382 nM.

For `CC1(N)CCN(c2cnc(Sc3cccc(Cl)c3Cl)c(N)n2)CC1` [Example 1, 6-(4-amino-4-methylpiperidin-1-yl)-3-((2,3-dichlorophenyl)thio)pyrazin-2-amine], the midpoint of inhibition, the IC50, lay at 29 nM.

As for `CC1(CN)CCN(c2cnc(Sc3cccnc3C(F)(F)F)c(N)c2)CC1` [Example 45], the IC50 under setting [1] came out at 351 nM.

With `CCC1(CN)CCN(c2cnc(Sc3ccnc(N)c3Cl)c(N)n2)CC1` [Example 50], the IC50 under setting [1] turned out to be 59 nM.

With `Nc1nc(N2CCC(N)(CO)CC2)cnc1Sc1ccnc(Cl)c1Cl` [Example 52, (4-amino-1-(6-amino-5-((2,3-dichloropyridin-4-yl)thio)pyrazin-2-yl)piperidin-4-yl)methanol], the IC50 under setting [1] stood at 62 nM.

`CC1(N)CCN(c2cnc(Sc3ccc(-c4nn[nH]n4)cc3Cl)c(N)n2)CC1` [Example 38, 6-(4-amino-4-methylpiperidin-1-yl)-3-((2-chloro-4-(2H-tetrazol-5-yl)phenyl)thio)pyrazin-2-amine]: the IC50 under setting [1] came to 23 nM.

For `CC1(CN)CCN(c2cnc(Sc3cccnc3Cl)c(N)n2)CC1` [Example 39, 6-(4-(aminomethyl)-4-methylpiperidin-1-yl)-3-((2-chloropyridin-3-yl)thio)pyrazin-2-amine], under setting [1], the IC50 is 26 nM.

Turning to `CC1(N)CCN(c2cnc(Sc3cc(Cl)ccc3Cl)c(N)n2)CC1` [Example 5], the IC50 under setting [1] came out at 1080 nM.

As to `Nc1nc(N2CCC(N)(CO)CC2)cnc1Sc1cccnc1C(F)(F)F` [Example 54], under setting [1], the half-maximal inhibitory concentration (IC50) turned out to be 170 nM.

`NCC1(c2cccnc2)CCN(c2cnc(Sc3cccc(Cl)c3Cl)c(N)n2)CC1` [Example 28, 6-(4-(aminomethyl)-4-(pyridin-3-yl)piperidin-1-yl)-3-((2,3-dichlorophenyl)thio)pyrazin-2-amine]: under setting [1], the IC50 was found to be 54 nM.

Turning to `NCC1(c2cscn2)CCN(c2cnc(Sc3cccnc3C(F)(F)F)c(N)n2)CC1` [Example 40, 6-(4-(aminomethyl)-4-(thiazol-4-yl)piperidin-1-yl)-3-((2-(trifluoromethyl)pyridin-3-yl)thio)pyrazin-2-amine], under setting [1], the IC50 turned out to be 79 nM.

With `NCC1CCCN(c2cnc(Sc3cccnc3C(F)(F)F)c(N)n2)C1` (stereo not drawn) [Example 46], under setting [1], the IC50 came out at 459 nM.

For the compound `CC1(N)CCN(c2cnc(Sc3cc(O)ccc3Cl)c(N)n2)CC1` [Example 9, 3-((3-amino-5-(4-amino-4-methylpiperidin-1-yl)pyrazin-2-yl)thio)-4-chlorophenol], under setting [1], the IC50 was found to be 307 nM.

As for `NCC1(F)CCN(c2cnc(Sc3cccc(N)c3Cl)c(N)n2)CC1` [Example 44, 3-((3-amino-2-chlorophenyl)thio)-6-(4-(aminomethyl)-4-fluoropiperidin-1-yl)pyrazin-2-amine], the IC50 under setting [1] is 271 nM.

For `CC1(N)CCN(c2cnc(Oc3cccc(Cl)c3Cl)c(N)n2)CC1` [Example 8], under setting [1], the IC50 was 64400 nM.

`CC1(N)CCN(c2nnc(Sc3cccc(Cl)c3Cl)c(N)n2)CC1` [Example 14, 3-(4-amino-4-methylpiperidin-1-yl)-6-((2,3-dichlorophenyl)thio)-1,2,4-triazin-5-amine]: the IC50 under setting [1] was determined as 143 nM.

Turning to `CCCC1(CN)CCN(c2cnc(Sc3ccnc(N)c3Cl)c(N)n2)CC1` [Example 51], under setting [1], the IC50 came to 17 nM.

Take `CC1(CN)CCN(c2cnc(Sc3cccc(N)c3Cl)c(N)n2)CC1` [Example 20]: under setting [1], the IC50 amounted to 22 nM.

`CC1(N)CCN(c2cnc(Sc3ccccc3C(F)(F)F)c(N)n2)CC1` [Example 4, 6-(4-amino-4-methylpiperidin-1-yl)-3-((2-(trifluoromethyl)phenyl)thio)pyrazin-2-amine]: the IC50 under setting [1] is 59 nM.

With `CC1(N)CCN(c2cnc(Sc3ccncc3Cl)c(N)n2)CC1` [Example 36, 6-(4-amino-4-methylpiperidin-1-yl)-3-((3-chloropyridin-4-yl)thio)pyrazin-2-amine], under setting [1], the IC50 is 76 nM.

For `CC1(CN)CCN(c2nc(N)c(Sc3cccnc3C(F)(F)F)nc2C(N)=O)CC1` [Example 35], the IC50 under setting [1] worked out at 109 nM.

In the case of `CC1(N)CCN(c2cnc(Sc3ccc(F)cc3Cl)c(N)n2)CC1` [Example 23], under setting [1], the IC50 stood at 51 nM.

With `CC1(N)CCN(c2cnc(Sc3ccc(Cl)cc3Cl)c(N)n2)CC1` [Example 6], the IC50 under setting [1] was determined as 210 nM.

As for `CC1(CN)CCN(c2cnc(Sc3ccnc(Cl)c3Cl)c(N)n2)CC1` [Example 43, 6-(4-(aminomethyl)-4-methylpiperidin-1-yl)-3-((2,3-dichloropyridin-4-yl)thio)pyrazin-2-amine], under setting [1], the IC50 worked out at 14 nM.

On to `CC1(N)CCN(c2cnc(Sc3ccnc(C(F)(F)F)c3Cl)c(N)n2)CC1` [Example 37], for which, under setting [1], the 50% inhibitory concentration (IC50) was 82 nM.

Turning to `COc1cccc(Sc2ncc(N3CCC(C)(N)CC3)nc2N)c1Cl` [Example 10, 6-(4-amino-4-methylpiperidin-1-yl)-3-((2-chloro-3-methoxyphenyl)thio)pyrazin-2-amine], the IC50 under setting [1] was 56 nM.

As to `CC1(N)CCN(c2cnc(Sc3cccc(N)c3C(F)(F)F)c(N)n2)CC1` [Example 21], under setting [1], the IC50 stood at 46 nM.

`CC1(N)CCN(c2cnc(Sc3ccc(F)cc3C(F)(F)F)c(N)n2)CC1` [Example 26]: the half-maximal inhibitory concentration (IC50) under setting [1] is 67 nM.

In the case of `CC1(N)CCN(c2nnc(Sc3ccccc3Cl)c(N)n2)CC1` [Example 15], the IC50 under setting [1] came out at 266 nM.

Consider `COc1ccc(Cl)c(Sc2ncc(N3CCC(C)(N)CC3)nc2N)c1` [Example 7], for which the IC50 under setting [1] is 13700 nM.

With `CC1(CN)CCN(c2nc(N)c(Sc3cccc(Cl)c3Cl)nc2C(N)=O)CC1` [Example 33, 5-amino-3-(4-(aminomethyl)-4-methylpiperidin-1-yl)-6-((2,3-dichlorophenyl)thio)pyrazine-2-carboxamide], the IC50 under setting [1] was 19 nM.

For the compound `CC1(CN)CCN(c2cnc(Sc3ccncc3F)c(N)n2)CC1` [Example 48], the IC50 under setting [1] was 177 nM.

On to `Nc1nc(N2CCC(N)(CO)CC2)cnc1Sc1ccnc(N)c1Cl` [Example 53], for which the IC50 under setting [1] was determined as 315 nM.

`CC1(N)CCN(c2cnc(Sc3cccc(NC(=O)c4ccc5ccccc5c4)c3Cl)c(N)n2)CC1` [Example 13]: under setting [1], the IC50 is 257 nM.

For the compound `C[C@@]1(N)CCN(c2cnc(Sc3cccc(Cl)c3Cl)c(N)n2)C[C@H]1O` [Example 24], the IC50 under setting [1] was 49 nM.

With `CC1(N)CCN(c2cnc(Sc3ccccc3Cl)c(N)n2)CC1` [Example 2], the half-maximal inhibitory concentration (IC50) under setting [1] was 70 nM.

Consider `Nc1cccc(Sc2ncc(N3CCC(N)(CO)CC3)nc2N)c1Cl` [Example 32], for which, under setting [1], the IC50 turned out to be 195 nM.
